Data set [1] concerns tail suspended mice. Nature of the data set: Tail suspension test in mice. The settings on record: 30 min before test, last 4 min of 6 min. The data set is classed as in vivo, Male ICR mice. The text has this:
Male ICR mice (SPF grade) weighing 18-22 g each was suspended by […] separately at 1 cm from the end of the tail with a clamp attached to a rope at the center of top plate of a 25×25×25 cm tail suspension box, and the head is away from the box bottom by 4-5 cm. […] The results of antidepressant effects of the target compounds administrated via intraperitoneal injection as determined by the tail suspension test in mice are given in Table 1. In the tail-suspended model of mice, the antidepressant effect was evaluated by observing the immobility time of the tail-suspended mice, and the shorter the immobility time, the stronger the antidepressant effect.

The subject of a further data set is forced swim mice. Kind of data set: Forced swim test in mice. The conditions noted are these: for Immobility time: last 4 min of 6 min. The data set is classed as in vivo, ICR mice. The method, then:
Mail ICR mice (SPF grade) weighing 18-22 g were placed in a glass jar (diameter 10 cm, and height 20 cm) with water 10 cm in depth and a temperature of 25° C., observed for 6 min, and the accumulated immobility time of mice (i.e., the time that the animal has no motion or a slight motion in its hind limbs, but maintains body floated without motion) during the last 4 min was recorded. The mice were administrated with the compound to be tested and Duloxetine as the positive control drug via intraperitoneal injection at 30 min before the test or via intragastric administration at 60 min before the test.
In the forced swim model of mice, the antidepressant effect was evaluated to by observing the immobility time of the forced swim mice, and the shorter the immobility time, the stronger the antidepressant effect.

The test system of data set [2] is tail suspended mice. Kind of data set: Tail suspension test in mice. The data set is classed as in vivo, Male ICR mice. The conditions noted are these: for Immobility time: last 4 min of 6 min.
[3] abbreviates: 2.5 mg/kg i.p., 30 min before test.
[4] abbreviates: 5 mg/kg i.p., 30 min before test.
[5] abbreviates: 10 mg/kg i.p., 30 min before test.
Setting [6] is: 20 mg/kg i.p., 30 min before test.
Setting [7] is: 10 mg/kg i.g., 60 min before test.
Setting [8] is: 5 mg/kg i.g., 60 min before test.
Setting [9] is: 20 mg/kg i.g., 60 min before test.

A word on the melting point: it is the temperature of the solid-liquid transition.

The compound `CN(C)CCC(Oc1cccc2c1OCCO2)c1ccco1.O=C(O)C(=O)O` (stereo not shown) gave a melting point of 101 to 103 °C.

`CN(C)CCC(Oc1cccc2c1OCCO2)c1cccs1.O=C(O)C(=O)O` (stereo not shown) yielded a melting point of 89 to 92 °C.

`CN(C)CCC(Oc1cccc2c1OCO2)c1ccco1.O=C(O)C(=O)O` (stereo not shown) [Compound I6, N,N-dimethyl-[3-(benzo[1,3]dioxolan-4-yl-oxy)-3-(furan-2-yl)]-propylamine.oxalate] came in with a melting point of 97 to 101 °C. This compound also came in with an Immobility time in the data set on tail suspended mice [1] (2.5 mg/kg i.p.) of 51.2 ± 34.3 s. The compound also returned an Immobility time in the data set with tail suspended mice [1] (5 mg/kg i.p.) of 53.9 ± 46.9 s. For the same compound, in the data set on tail suspended mice [1] (10 mg/kg i.p.), the Immobility time is on record as 22.5 ± 28.1 s. Moreover, in the data set with tail suspended mice [1] (20 mg/kg i.p.), the Immobility time amounted to 11.9 ± 16.8 s. In the data set with forced swim mice (setting [3]), this compound displayed an Immobility time of 92.4 ± 39.2 s. The Immobility time with forced swim mice (setting [4]) is on record as 96.5 ± 43.3 s. Also, the Immobility time with forced swim mice (setting [5]) was 108.2 ± 46.7 s. The compound also displayed an Immobility time in the data set with forced swim mice (setting [6]) of 61.2 ± 44.5 s.

In turn, `O=C(O)C(=O)O.c1csc(C(CCN2CCCCC2)Oc2cccc3c2OCO3)c1` (stereo not shown) came in with a melting point of 118 to 120 °C.

For `CNCCC(Oc1cccc2c1OCO2)c1ccco1.O=C(O)C(=O)O` (stereo not shown) [Compound I7, N-methyl-[3-(benzo[1,3]dioxolan-4-yl-oxy)-3-(furan-2-yl)]propylamine.oxalate], the melting point was 130 to 133 °C. The Immobility time in the data set on tail suspended mice [1] (2.5 mg/kg i.p.) stood at 30.7 ± 44.1 s. Moreover, the Immobility time in the data set on tail suspended mice [1] (5 mg/kg i.p.) is given as 21.9 ± 21.5 s. In addition, the Immobility time with tail suspended mice [1] (10 mg/kg i.p.) came out at 33.3 ± 31.2 s. The compound also yielded an Immobility time in the data set on tail suspended mice [1] (20 mg/kg i.p.) of 0.3 ± 0.95 s. This compound also registered an Immobility time with forced swim mice (setting [3]) of 94.3 ± 55.3 s. This compound gave an Immobility time in the data set with forced swim mice (setting [4]) of 78.9 ± 43.1 s. This compound also came in with an Immobility time in the data set with forced swim mice (setting [5]) of 70.9 ± 33.0 s. For the same compound, in the data set on forced swim mice (setting [6]), the Immobility time is reported as 28.4 ± 35.8 s.

With `CNCC[C@H](Oc1cccc2ccccc12)c1cccs1` [Duloxetine, reference compound], the Immobility time with forced swim mice (setting [6]) is 96.7 to 135.4 s; with forced swim mice (40 mg/kg i.g., 60 min before test), 60.5 ± 44.1 s; in the data set on tail suspended mice [2] (setting [7]), 81.0 ± 44.7 s; with tail suspended mice [2] (setting [5]) it was 35.9 to 49.2 s.

`O=C(O)C(=O)O.c1csc(C(CCN2CCCC2)Oc2cccc3c2OCO3)c1` (stereo not shown) came in with a melting point of 105 to 108 °C.

Consider `CNCCC(Oc1cccc2c1OCCO2)c1cccs1.O=C(O)C(=O)O` (stereo not shown), for which the melting point fell in the range of 128 to 131 °C.

For `CN(C)CCC(Oc1cccc2c1OCO2)c1cccs1.O=C(O)C(=O)O` (stereo not shown) [Compound I1, N,N-dimethyl-3-[(benzo[1,3]dioxolan-4-yl)-oxy]-3-(thiophen-2-yl)-propylamine.oxalate], the melting point fell in the range of 85 to 88 °C. In the data set with tail suspended mice [1] (2.5 mg/kg i.p.), the Immobility time is 38.2 ± 32.5 s. The Immobility time in the data set with tail suspended mice [1] (5 mg/kg i.p.) turned out to be 20.2 ± 17.1 s. Further, the Immobility time in the data set with tail suspended mice [1] (10 mg/kg i.p.) is listed as 6.2 ± 7.4 s. This compound also displayed an Immobility time in the data set on tail suspended mice [1] (20 mg/kg i.p.) of 2.0 ± 6.3 s. The Immobility time in the data set on forced swim mice (setting [3]) is on record as 148.7 ± 40.3 s. For the same compound, the Immobility time in the data set on forced swim mice (setting [4]) is recorded as 86.7 ± 44.7 s. The Immobility time in the data set on forced swim mice (setting [5]) is 54.6 ± 44.0 s. In the data set on forced swim mice (setting [6]), this compound yielded an Immobility time of 18.6 ± 15.7 s.

Consider `CNCCC(Oc1cccc2c1OCO2)c1cccs1.O=C(O)C(=O)O` (stereo not shown) [Compound I2], for which the melting point fell in the range of 120 to 123 °C. The same compound yielded an Immobility time with tail suspended mice [1] (2.5 mg/kg i.p.) of 35.0 ± 30.0 s. This compound also returned an Immobility time in the data set with tail suspended mice [1] (5 mg/kg i.p.) of 20.8 ± 32.1 s. This compound also gave an Immobility time with tail suspended mice [1] (10 mg/kg i.p.) of 1.9 ± 4.0 s. This compound also displayed an Immobility time in the data set on tail suspended mice [1] (20 mg/kg i.p.) of 2.5 ± 4.1 s. For the same compound, the Immobility time in the data set with forced swim mice (setting [3]) was determined as 113.6 ± 47.4 s. Further, the Immobility time with forced swim mice (setting [8]) is on record as 104.1 ± 39.7 s. The same compound displayed an Immobility time in the data set on forced swim mice (setting [4]) of 119.4 ± 47.0 s. Also, the Immobility time with forced swim mice (setting [7]) is recorded as 83.7 ± 34.2 s. Also, the Immobility time in the data set with forced swim mice (setting [5]) turned out to be 86.1 ± 36.5 s. This compound had an Immobility time in the data set with forced swim mice (setting [9]) of 60.1 ± 33.8 s. In the data set on forced swim mice (setting [6]), this compound returned an Immobility time of 43.1 ± 37.1 s. Also, in the data set on forced swim mice (i.g., I2 20 mg/kg vs Duloxetine 40 mg/kg), the “antidepressant effect compared with Duloxetine (in words)” value is on record as “comparable to that of Duloxetine at the dose of 40 mg/kg”. The “effect on immobility time (in words)” value in the data set with forced swim mice (intragastric administration, Table 4) is given as “significantly shorten the immobility time”. In the data set with tail suspended mice [2] (setting [8]), the Immobility time is given as 66.1 ± 44.9 s. In the data set on tail suspended mice [2] (setting [7]), the Immobility time is recorded as 51.8 ± 36.0 s. In addition, in the data set with tail suspended mice [2] (setting [9]), the Immobility time worked out at 22.0 ± 16.9 s. The “effect compared with duloxetine (in words)” value in the data set on tail suspended mice [2] (i.g., I2 5 mg/kg vs duloxetine 10 mg/kg) was “remarkably greater than that of duloxetine at the dose of 10 mg/kg”. The “effect on immobility time (in words)” value with tail suspended mice [2] (intragastric administration, Table 2) is recorded as “significantly shorten the immobility time”.

(Values after patent US8318772B2, “Amine compounds and medical uses thereof” (Institute of Pharmacology and Toxicology Academy of …, priority 2008, dated 2012).)
